Drawing on ChEMBL document CHEMBL1938312, “Design and combinatorial synthesis of a novel kinase-focused library using click chemistry-based fragment assembly” (Bioorg Med Chem Lett, 2012), this text covers IC50 for 15 compounds.

Assay [1] concerns the target T1, Receptor-type tyrosine-protein kinase FLT3 (Homo sapiens, UniProt P36888).
T1 sequence (P36888 whole entry): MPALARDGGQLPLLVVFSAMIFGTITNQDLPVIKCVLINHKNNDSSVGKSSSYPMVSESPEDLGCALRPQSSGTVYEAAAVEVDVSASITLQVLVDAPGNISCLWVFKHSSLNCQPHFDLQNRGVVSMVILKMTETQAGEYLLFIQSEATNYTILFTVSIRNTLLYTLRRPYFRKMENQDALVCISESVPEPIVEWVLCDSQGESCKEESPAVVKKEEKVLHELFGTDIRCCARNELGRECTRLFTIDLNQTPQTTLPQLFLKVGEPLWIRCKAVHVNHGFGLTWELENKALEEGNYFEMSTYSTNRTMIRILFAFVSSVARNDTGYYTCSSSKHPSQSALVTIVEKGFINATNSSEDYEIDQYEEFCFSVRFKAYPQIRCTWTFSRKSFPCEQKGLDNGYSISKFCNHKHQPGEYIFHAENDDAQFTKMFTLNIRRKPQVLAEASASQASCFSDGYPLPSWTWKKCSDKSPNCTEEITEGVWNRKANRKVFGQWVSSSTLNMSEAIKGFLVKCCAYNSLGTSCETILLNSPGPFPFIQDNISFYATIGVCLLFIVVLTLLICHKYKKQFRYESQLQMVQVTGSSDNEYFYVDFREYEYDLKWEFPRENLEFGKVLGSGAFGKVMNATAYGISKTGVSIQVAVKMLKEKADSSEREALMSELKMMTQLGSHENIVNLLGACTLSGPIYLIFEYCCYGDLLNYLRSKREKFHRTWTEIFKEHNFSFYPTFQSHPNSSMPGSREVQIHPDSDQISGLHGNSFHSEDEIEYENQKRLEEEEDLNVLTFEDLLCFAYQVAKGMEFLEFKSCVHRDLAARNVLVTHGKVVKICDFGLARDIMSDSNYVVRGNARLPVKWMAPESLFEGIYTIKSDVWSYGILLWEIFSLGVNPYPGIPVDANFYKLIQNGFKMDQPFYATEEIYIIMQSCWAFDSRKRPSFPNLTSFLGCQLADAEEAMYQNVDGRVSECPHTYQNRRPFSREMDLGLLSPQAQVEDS
Put plainly: Inhibition of FLT3 by colorimetric analysis.

Assay [2] deals with Glycogen synthase kinase-3 beta (Homo sapiens, UniProt P49841). Kind of assay: Inhibition of GSK3-beta by colorimetric analysis.

Each structure is given as a SMILES string. pIC50: −log10 of the molar value. Bounds are passed on as bounds.

Glycogen synthase kinase-3 beta, sequence (P49841 whole entry): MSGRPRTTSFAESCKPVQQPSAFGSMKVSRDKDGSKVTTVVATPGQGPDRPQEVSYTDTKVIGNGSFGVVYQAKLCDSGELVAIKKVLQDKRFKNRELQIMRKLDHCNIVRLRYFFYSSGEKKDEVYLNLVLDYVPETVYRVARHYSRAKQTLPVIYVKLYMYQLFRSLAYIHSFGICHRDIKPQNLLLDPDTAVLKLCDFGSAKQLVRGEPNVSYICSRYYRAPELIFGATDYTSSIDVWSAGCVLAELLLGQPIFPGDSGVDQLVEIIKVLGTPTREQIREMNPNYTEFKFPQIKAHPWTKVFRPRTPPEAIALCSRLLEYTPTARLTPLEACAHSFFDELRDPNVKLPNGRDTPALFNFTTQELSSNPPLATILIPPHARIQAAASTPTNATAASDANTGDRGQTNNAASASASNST

As to `Cc1ccc(-n2cc(-c3ccncc3)nn2)cc1`, in assay [1], the pIC50 is 5.18.

As for `Cc1ccccc1-n1cc(-c2ccccn2)nn1`, the negative logarithm of the IC50 (pIC50) is 5.03 in assay [1] and 6.31 in assay [2].

In the case of `c1cc(-c2cnnn2C2C3CC4CC(C3)CC2C4)ccn1` (stereo unspecified), the negative-log IC50 (pIC50) in assay [1] was 5.32; in assay [2], 5.59.

In the case of `Fc1ccc(-n2cc(-c3ccccn3)nn2)cc1`, in assay [1], the pIC50 is 5.17.

Consider `c1ccc(Cn2cc(-c3ccc4nccnc4c3)nn2)cc1`, for which the values for the pIC50 in assay [1] and in assay [2] were 5.20 and 5.02, respectively.

Turning to `c1cnc2cc(-c3cnnn3C3C4CC5CC(C4)CC3C5)ccc2n1` (stereo unspecified), the pIC50 in assay [1] is 5.51; in assay [2] it was 5.55.

In assay [1], `Clc1ccc(-n2cc(-c3ccccn3)nn2)cc1` had a pIC50 of 5.20.

For the compound `Cc1ccccc1-n1nncc1-c1ccncc1`, the negative logarithm of the IC50 (pIC50) is 5.21 in assay [1] and 5.20 in assay [2].

On to `Fc1ccc(-n2cc(-c3ccc4nccnc4c3)nn2)cc1`, for which the pIC50 in assay [1] was 4.91.

In assay [1], `Cc1ccc(-n2nncc2-c2ccncc2)cc1` showed a negative logarithm of the IC50 (pIC50) of 5.64.

As for `c1cnc2cc(-c3cn(C4C5CC6CC(C5)CC4C6)nn3)ccc2n1` (stereo unspecified), in assay [1], the pIC50 is 5.01.

For `Cc1ccc(-n2cc(-c3ccccn3)nn2)cc1`, the figures for the pIC50 in assay [1] and in assay [2] were 5.96 and less than 4.52, respectively.

Consider `c1ccc(-c2cnnn2C2C3CC4CC(C3)CC2C4)nc1` (stereo unspecified), for which, in assay [1], the negative logarithm of the IC50 (pIC50) was 4.99.

As to `c1cnc2cc(-c3cn(CCN4CCOCC4)nn3)ccc2n1`, in assay [1], the negative-log IC50 (pIC50) was 4.96. This pIC50 and that of the compound before are within 0.2 log units of each other.

For the compound `Fc1ccc(-n2nncc2-c2ccncc2)cc1`, in assay [1], the pIC50 is 5.85.
